According to patent publication US12042523B2, “Compositions and methods for managing or improving bone disorders, joint disorders, cartilage disorders, or a combination thereof” (Unigen, Inc., priority 2014, dated 2024):
Marks after values point to notes of the source that are not given here.

Key:
Type in all cases: in vivo, rat
[1] = system: MIA-induced osteoarthritis in Sprague-Dawley rats; assay: Pain sensitivity (paw withdrawal / compression threshold, Randall-Salitto) in MIA-induced OA model; details: Diclofenac 10, UP1306 400, UP446 250, Composition 650 mg/kg; for Compression threshold (Mean ± SD): oral
Procedure: Animals were provided with fresh water and rodent chow diet # T2018 (Harlan Teklad, 370W, Kent, WA, USA) ad libitum and were housed in a temperature-controlled room (22.2° C.) on a 12 h light-dark cycle.
Treatment started a week before MIA injection. […] The standardized blends for each treatment groups are defined as UP446=1A:4S, UP1306=1A:2M and the composition at the given dosage=0.282A:0.308S:0.410M where “A”, “S” and “M” stands for acacia, scutellaria and moms, respectively. On the induction day, isoflurane (Lot #B66H15A, Piramal Enterprise Ltd. Andhra Pradesh, India) anesthetized rats were injected with 0.8 mg of MIA (Lot #A0352046, Acros Organics, New Jersey, USA) in 50 μL saline solution into the intra-articular pocket of left femorotibial (knee) joint using 26 G needle an hour after treatment. Normal control rats were injected with an equal volume of saline. […] Body weights were measured once a week to calculate the respective weekly dosage of each group. The merit of combining UP1306 and UP446 was then evaluated using the Colby's equation (Colby, 1967). Pain sensitivity percent inhibition values were used to determine the calculated efficacy values and compared to the observed percent inhibition values of the composition.

[2] = system: urine CTX-II (C-telopeptide of type II collagen); assay: Urine CTX-II ELISA in MIA-induced OA model
Procedure: Treatment started a week before MIA injection. […] On the induction day, isoflurane (Lot #[…] Enterprise Ltd. […], India) anesthetized rats were injected with 0.8 mg of MIA (Lot #A0352046, Acros Organics, New Jersey, USA) in 50 μL saline solution into the intra-articular pocket of left femorotibial (knee) joint using 26 G needle an hour after treatment. Normal control rats were injected with an equal volume of saline. […] Body weights were measured once a week to calculate the respective weekly dosage of each group. The merit of combining UP1306 and UP446 was then evaluated using the Colby's equation (Colby, 1967). Pain sensitivity percent inhibition values were used to determine the calculated efficacy values and compared to the observed percent inhibition values of the composition. CTX-II ELISA was performed according to the kit manufacturer's specifications. […] Rat urine samples were thawed on ice and diluted 1:3 with Sample Diluent. 100 μL of samples and standards were added to a 96-well plate pre-coated with CTX-II antibody. The plate was covered and incubated at 37° C. for 2 hours. The liquid was aspirated from each well, then 100 μL of Detection Reagent A working solution was added to each well. The plate was covered and incubated at 37° C. for 1 hour. The solution was aspirated from each well and the plate was washed three times with 1× Wash Buffer. 100 μL of Detection Reagent B working solution was added to each well, then the plate was covered and incubated at 37° C. for 1 hour. The solution was aspirated from each well and the plate was washed five times with 1× Wash Buffer. 90 μL of Substrate Solution was added to each well, then the plate was covered and incubated at 37° C. for 30 minutes. […] Stop Solution was added to each well, and the optical density at 450 nm was detected using a Tecan Genios plate reader. CTX-II concentrations for each sample were determined by multiplying by the dilution factor and fitting the value to the standard curve. To offset the variations in urine flow between rats, values were normalized to total urine protein.

[3] = system: MIA-induced osteoarthritis in Sprague-Dawley rats; assay: Bone histomorphometry (Micro CT) in concurrent MIA-induced osteoarthritis model
Procedure: Male Sprague-Dawley (SD) rats weighing 170˜230 g (6 weeks of age) were purchased and acclimated for one week. […] Anesthetized rats were injected with 0.8 mg of MIA in 50 μl saline solution into the intra-articular pocket at 1 hour after sample treatments. And then samples were administrated daily with gastric tube for 6 weeks. Bone histomorphometry was evaluated on both femur and tibia per knee joint by Micro CT scan using an Inveon™ unit (Siemens Healthcare USA, Inc., Pennsylvania, USA) at Korea Basic science institute, Ochang, Korea. BV/TV as an indicator of trabecular bone volume is the ratio of the trabecular bone volume to the total volume. BMD used as an indicator of osteoporosis and fracture risk. Therefore, we checked those markers whether GM has the efficacy on the osteoporosis. […] Anesthetized rats were injected with 0.8 mg of MIA in 50 μl saline solution into the intra-articular pocket at 1 hour after sample treatments. Samples were administrated daily with gastric tube for 6 weeks. Bone histomorphometry was evaluated on both femur and tibia per knee joint by Micro CT scan using an Inveon™ unit (Siemens Healthcare USA, Inc., Pennsylvania, USA) at Korea Basic science institute, Ochang, Korea. BV/TV as an indicator of trabecular bone volume is the ratio of the trabecular bone volume to the total volume. BMD used as an indicator of osteoporosis and fracture risk.

[4] = system: MIA-induced osteoarthritis in Sprague-Dawley rats; assay: Bone histomorphometry (Micro CT) in therapeutic MIA induced osteoarthritis model
Procedure: Male Sprague-Dawley (SD) rats weighing 170˜230 g (6 weeks of age) were purchased and acclimated for one week. […] Anesthetized rats were injected with 0.8 mg of MIA in 50 μl saline solution into the intra-articular pocket. One week after MIA induction, samples were administrated daily with gastric tube for 6 weeks. Bone histomorphometry was evaluated on both femur and tibia per knee joint in rats from the MIA-induced osteoarthritis model by Micro CT scan using an Inveon™ unit (Siemens Healthcare USA, Inc., Pennsylvania, USA) at Korea Basic science institute, Ochang, Korea. BMD was used as an indicator of osteoporosis and fracture risk; BV/TV as an indicator of trabecular bone volume refers to the ratio of the trabecular bone volume to the total volume; BS/BV as an indicator of trabecular turnover refers to the ratio of the trabecular bone surface to the trabecular bone volume of a region of interest.

[5] = MIA-induced OA rats, urine, week 5 of daily oral treatment
[6] = MIA 1 hour after sample treatment, daily 6 weeks, Diclofenac 10 mg/kg, GM 500 mg/kg, mean ± SD
[7] = treatment from one week after MIA, daily 6 weeks, Diclofenac 10 mg/kg, GM 500 mg/kg, mean ± SD

SMILES: O=C(O)Cc1ccccc1Nc1c(Cl)cccc1Cl [Diclofenac]
- Percent change of vehicle, Pain sensitivity inhibition ([1]; Baseline): 0.9%
- Compression threshold (Mean ± SD) ([1]; Baseline): 244.1 ± 3.8
- Percent change of vehicle, Pain sensitivity inhibition ([1]; Week-1): 40.4* %
- Compression threshold (Mean ± SD) ([1]; Week-1): 190.8 ± 1.1
- Percent change of vehicle, Pain sensitivity inhibition ([1]; Week-2): 28.8* %
- Compression threshold (Mean ± SD) ([1]; Week-2): 171.8 ± 0.6
- Percent change of vehicle, Pain sensitivity inhibition ([1]; Week-3): 31.2* %
- Compression threshold (Mean ± SD) ([1]; Week-3): 170.1 ± 2.2
- Percent change of vehicle, Pain sensitivity inhibition ([1]; Week-4): 30.8* %
- Compression threshold (Mean ± SD) ([1]; Week-4): 171.6 ± 0.6
- Percent change of vehicle, Pain sensitivity inhibition ([1]; Week-5): 31.0* %
- Compression threshold (Mean ± SD) ([1]; Week-5): 170.9 ± 1.1
- Ratio (CTX-II/Protein), uCTX-II normalized to total protein [2, 5]: 64.41
- uCTX-II (Mean ± SD) [2, 5]: 304 ± 233 ng/L
- reduction in urine CTX-II ([2]; after 5 weeks of daily oral treatment, diclofenac 10, UP1306+UP446 650, UP1306 400, UP446 250 mg/kg): 31.33%
- BMD (mg/cm3) [3, 6]: 982.3 ± 19.44 mg/cm3
- BV/TV (%) [3, 6]: 71.89 ± 5.43%
- BMD compared with vehicle group ([3]; concurrent MIA model): significantly increased
- BV/TV compared with vehicle group ([3]; concurrent MIA model): tendency to increase
- BV/TV compared with vehicle group ([4]; therapeutic MIA model): decreasing tendency
- BMD (mg/cm3) [4, 7]: 896.2 ± 29.4 mg/cm3
- BS/BV [4, 7]: 9.11 ± 1.41
- BV/TV (%) [4, 7]: 65.35 ± 7.75%
